Where a name gives a salt, the structure may show the parent alone. Read-outs that look alike come from different tables or passages of the source.
Key:
[1] = biological target: T1, recombinant human 5-HT6 receptor (Homo sapiens, UniProt P50406); experiment: Determination of Kb values for 5-HT6 receptor (CHO pCRE-Luc reporter assay); format: cell-based; settings: antagonism of 10 uM serotonin, luciferase reporter, CHO cells
T1 construct: expressed in transfected cells
Experimental: A stable CHO cell line expressing recombinant human 5-HT6 receptor and pCRE-Luc reporter system was used for cell-based assay. The assay offers a non-radioactive based approach to determine binding of a compound to GPCRs. In this specific assay, the level of intracellular cyclic AMP which is modulated by activation or inhibition of the receptor is measured. The recombinant cells harbor luciferase reporter gene under the control of cAMP response element.
The above cells were grown in 96 well clear bottom white plates in Hams F12 medium containing 10% fetal bovine serum (FBS). Prior to the addition of compounds and/or agonist, cells were serum starved overnight. Increasing concentrations of test compounds were added along with 10 uM serotonin in Hams F12 medium containing 1% dialyzed FBS to the cells. The incubation was continued at 37° C. in CO2 incubator for 4 hours. Medium was removed and cells were washed with phosphate buffered saline. The cells were lysed and luciferase activity was measured in a Luminometer. Luminescence units were plotted against the compound concentrations using Graphpad software. EC50 values of the compounds were defined as the concentration required reducing the luciferase activity by 50%. The Kb values were calculated by feeding the concentration of the agonist used in the assay and its EC50 value in the same software.

[2] = Rodent pharmacokinetic study; format: in vivo; settings: plasma, Wistar/Male rat, 10 mg/kg; for AUC(0-t) / half-life / Cmax / Tmax: vehicle water (Ex. 8: 50% PEG 400); for Cmax: read-out: Cmax; for Tmax: read-out: Tmax; for bioavailability: Oral vs Intravenous, read-out: Bioavailability
Experimental: Male wistar rats (230-280 grams) obtained from NIN (National Institute of Nutrition, Hyderabad, India) were used as an experimental animal. Three to five animals were housed in each cage. Animals were kept fasted over night and maintained on a 12 hours light/dark cycle. Three rats were dosed NCE (10 mg/Kg) orally and intravenously on day 0 and day 2.
At each time point blood was collected by jugular vein. Plasma was stored frozen at −20° C. until analysis. The concentrations of the NCE compound in plasma were determined using LC-MS/MS method. Schedule time points: Pre dose 0.25, 0.5, 1, 1.5, 2, 3, 4, 6, 8, 10, 12 and 24 hours after dosing (n=3). The NCE compounds were quantified in plasma by validated LC-MS/MS method using solid phase extraction technique. NCE compounds were quantified in the calibration range of 2-2000 ng/mL in plasma. Study samples were analyzed using calibration samples in the batch and quality control samples spread across the batch.
Pharmacokinetic parameters Cmax, Tmax, AUCt, T1/2 and Bioavailability were calculated by non-compartmental model using software WinNonlin version 5.1.

[3] = Object recognition task model; format: in vivo; settings: rat, p.o.
Experimental: The cognition-enhancing properties of compounds of this invention were estimated using a model of animal cognition: the object recognition task model.
Male Wister rats (230-280 grams) obtained from N.I.N. (National Institute of Nutrition, Hyderabad, India) was used as experimental animals. Four animals were housed in each cage. Animals were kept on 20% food deprivation before one day and given water ad libitum throughout the experiment and maintained on a 12 hours light/dark cycle. Also the rats were habituated to individual arenas for 1 hour in the absence of any objects.
One group of 12 rats received vehicle (1 mL/Kg) orally and another set of animals received compound of the formula (I) either orally or i.p., before one hour of the familiar (T1) and choice trial (T2).
The experiment was carried out in a 50×50×50 cm open field made up of acrylic. In the familiarization phase, (T1), the rats were placed individually in the open field for 3 minutes, in which two identical objects (plastic bottles, 12.5 cm height×5.5 cm diameter) covered in yellow masking tape alone (a1 and a2) were positioned in two adjacent corners, 10 cm. from the walls. After 24 hours of the (T1) trial for long-term memory test, the same rats were placed in the same arena as they were placed in T1 trial. Choice phase (T2) rats were allowed to explore the open field for 3 minutes in presence of one familiar object (a3) and one novel object (b) (Amber color glass bottle, 12 cm high and 5 cm in diameter). Familiar objects presented similar textures, colors and sizes. During the T1 and T2 trial, explorations of each object (defined as sniffing, licking, chewing or having moving vibrissae whilst directing the nose towards the object at a distance of less than 1 cm) were recorded separately by stopwatch. Sitting on an object was not regarded as exploratory activity, however, it was rarely observed. T1 is the total time spent exploring the familiar objects (a1+a2). T2 is the total time spent exploring the familiar object and novel object (a3+b).
The object recognition test was performed as described by Ennaceur, A., Delacour, J., 1988, A new one-trial test for neurobiological studies of memory in rats—Behavioural data, Behav. Brain Res., 31, 47-59.

T1 sequence (P50406 whole entry): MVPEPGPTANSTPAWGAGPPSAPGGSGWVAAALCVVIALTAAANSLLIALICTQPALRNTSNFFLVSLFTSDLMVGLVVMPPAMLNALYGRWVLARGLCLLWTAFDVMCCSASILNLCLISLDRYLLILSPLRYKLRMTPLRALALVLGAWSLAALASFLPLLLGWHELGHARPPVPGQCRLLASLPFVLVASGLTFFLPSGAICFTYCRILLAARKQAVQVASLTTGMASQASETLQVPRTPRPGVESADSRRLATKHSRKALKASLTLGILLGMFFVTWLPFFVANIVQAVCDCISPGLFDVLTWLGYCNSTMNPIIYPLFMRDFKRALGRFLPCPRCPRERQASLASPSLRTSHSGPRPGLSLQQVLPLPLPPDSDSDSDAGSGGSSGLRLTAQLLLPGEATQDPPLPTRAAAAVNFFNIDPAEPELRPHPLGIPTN

**Q.** Which melting point does the source give for COc1ccc2[nH]cc(S(=O)(=O)c3ccc(Cl)c(NC4CCN(C)CC4)c3)c2c1.Cl here?
**A.** 240.3 to 243.2 °C

**Q.** Which Kb [1] does the source give for COc1ccc(S(=O)(=O)c2cc(Br)ccc2OC)cc1NC1CCN(C)CC1.Cl [Example 3, N-[5-(5-Bromo-2-methoxybenzenesulfonyl)-2-methoxyphenyl]-N-(1-methylpiperidin-4-yl)amine hydrochloride salt] here?
**A.** 0.01 nM

**Q.** What about the AUC(0-t) ([2]; Intravenous) of the same molecule?
**A.** 1610 ± 544 ng·h/mL

**Q.** And the half-life ([2]; Intravenous)?
**A.** 94.2 ± 12.6 min

**Q.** What about the Cmax ([2]; Intravenous) of the same molecule?
**A.** 1080 ± 569 ng/mL

**Q.** And the Tmax ([2]; Intravenous)?
**A.** 7.2 ± 5.4 min

**Q.** And the bioavailability [2]?
**A.** 38 ± 1%

**Q.** And the AUC(0-t) ([2]; Oral)?
**A.** 931 ± 186 ng·h/mL

**Q.** And the half-life ([2]; Oral)?
**A.** 81 ± 16.2 min

**Q.** What about the Cmax ([2]; Oral) of the same molecule?
**A.** 341 ± 60 ng/mL

**Q.** And the Tmax ([2]; Oral)?
**A.** 33.6 ± 18.6 min

**Q.** And the “Exploration time mean ± S.E.M, Familiar object” value ([3]; 1 mg/kg)?
**A.** 4.53 ± 0.72 s

**Q.** And the “Exploration time mean ± S.E.M, Novel object” value ([3]; 1 mg/kg)?
**A.** 10.29 ± 1.54 s

**Q.** What about the Inference ([3]; 1 mg/kg) of the same molecule?
**A.** Active

**Q.** With CN1CCC(Nc2cccc(S(=O)(=O)c3c[nH]c4cc(Cl)ccc34)c2)CC1 [Example 5, N-(1-Methylpiperidin-4-yl)-N-[3-(6-chloro-1H-indole-3-ylsulfonyl)phenyl]amine hydrochloride] as the molecule, how does the Kb [1] read?
**A.** 3.38 nM

**Q.** With CN1CCC(Nc2cccc(S(=O)(=O)c3c[nH]c4ccc(F)cc34)c2)CC1.Cl [Example 6, N-(1-Methylpiperidin-4-yl)-N-[3-(5-fluoro-1H-indole-3-ylsulfonyl)phenyl]amine hydrochloride] as the molecule, how does the Kb [1] read?
**A.** 3.59 nM

**Q.** And the melting point?
**A.** 229.7 to 233.1 °C

**Q.** What does the source list for CN1CCC(Nc2cc(S(=O)(=O)c3c[nH]c4cc(Cl)ccc34)ccc2Cl)CC1.Cl [Example 8, N-(1-Methylpiperidin-4-yl)-N-[2-chloro-5-(6-chloro-1H-indole-3-ylsulfonyl)phenyl]amine hydrochloride]?
**A.** Kb [1]: 5.7 nM; AUC(0-t) ([2]; Intravenous): 6950 ± 3450 ng·h/mL; half-life ([2]; Intravenous): 338 ± 57 min; Cmax ([2]; Intravenous): 1340 ± 426 ng/mL; Tmax ([2]; Intravenous): 4.8 min; bioavailability [2]: 58 ± 12%; AUC(0-t) ([2]; Oral): 3810 ± 1340 ng·h/mL; half-life ([2]; Oral): 544 ± 128 min; Cmax ([2]; Oral): 327 ± 99 ng/mL; Tmax ([2]; Oral): 180 min; melting point: 189.7 to 194.2 °C

**Q.** For COc1ccc(S(=O)(=O)c2c[nH]c3ccccc23)cc1NC1CCN(C)CC1 [Example 11, N-(1-Methylpiperidin-4-yl)-N-[2-methoxy-5-(1H-Indole-3-ylsulfonyl)phenyl]amine], which Kb [1] is on record?
**A.** 0.05 nM

**Q.** And the “Exploration time mean ± S.E.M, Familiar object” value ([3]; 3 mg/kg)?
**A.** 9.19 ± 1.44 s

**Q.** What about the “Exploration time mean ± S.E.M, Novel object” value ([3]; 3 mg/kg) of the same molecule?
**A.** 14.24 ± 1.29 s

**Q.** And the Inference ([3]; 3 mg/kg)?
**A.** Active

**Q.** For COc1ccc2[nH]cc(S(=O)(=O)c3ccc(OC)c(NC4CCN(C)CC4)c3)c2c1 [Example 13, N-(1-Methylpiperidin-4-yl)-N-[2-methoxy-5-(5-methoxy-1H-Indole-3-ylsulfonyl)phenyl]amine], which Kb [1] is on record?
**A.** 0.11 nM

**Q.** Which Kb [1] does the source give for COc1ccc2[nH]cc(S(=O)(=O)c3ccc(OC)c(NC4CCNCC4)c3)c2c1 [Example 14, N-(Piperidin-4-yl)-N-[2-methoxy-5-(5-methoxy-1H-Indole-3-ylsulfonyl)phenyl]amine] here?
**A.** 0.16 nM

**Q.** Which melting point does the source give for CN1CCC(Nc2cc(S(=O)(=O)c3c[nH]c4cc(Cl)ccc34)ccc2Cl)CC1 [Example 15, N-(1-Methylpiperidin-4-yl)-N-[2-chloro-5-(6-chloro-1H-Indole-3-ylsulfonyl)phenyl] amine] here?
**A.** 186.1 to 189.9 °C

**Q.** Which Kb [1] does the source give for COc1ccc(Br)cc1S(=O)(=O)c1ccc(C)c(NC2CCNCC2F)c1 (centres unmarked) [Example 18, N-[5-(5-Bromo-2-methoxybenzenesulfonyl)-2-methylphenyl]-N-(3-fluoropiperidin-4-yl) amine hydrochloride] here?
**A.** 6.1 nM

**Q.** Which Kb [1] does the source give for COc1ccc(Br)cc1S(=O)(=O)c1ccc(C)c(NC2CCNCC2)c1 [Example 22, N-[5-(5-Bromo-2-methoxybenzenesulfonyl)-2-methylphenyl]-N-(piperidin-4-yl)amine hydrochloride] here?
**A.** 1.1 nM

**Q.** With COc1ccc(Br)cc1S(=O)(=O)c1ccc(C)c(NC2CCN(C)CC2)c1 [Example 23, N-[5-(5-Bromo-2-methoxybenzenesulfonyl)-2-methylphenyl]-N-(1-methylpiperidin-4-yl)amine hydrochloride] as the molecule, how does the Kb [1] read?
**A.** 2.1 nM

**Q.** With COc1ccc(S(=O)(=O)c2cc(Br)ccc2OC)cc1NC1CCNCC1F.Cl (centres unmarked) [Example 28, N-[5-(5-Bromo-2-methoxybenzenesulfonyl)-2-methoxyphenyl]-N-(3-fluoropiperidin-4-yl)amine hydrochloride] as the molecule, how does the Kb [1] read?
**A.** 0.1 nM

**Q.** And the AUC(0-t) ([2]; Intravenous)?
**A.** 3470 ± 161 ng·h/mL

**Q.** And the half-life ([2]; Intravenous)?
**A.** 87.6 ± 7.8 min

**Q.** What about the Cmax ([2]; Intravenous) of the same molecule?
**A.** 1920 ± 29 ng/mL

**Q.** And the Tmax ([2]; Intravenous)?
**A.** 4.8 min

**Q.** And the bioavailability [2]?
**A.** 44 ± 18%

**Q.** And the AUC(0-t) ([2]; Oral)?
**A.** 1520 ± 630 ng·h/mL

**Q.** What about the half-life ([2]; Oral) of the same molecule?
**A.** 81.6 ± 4.2 min

**Q.** And the Cmax ([2]; Oral)?
**A.** 429 ± 181 ng/mL

**Q.** And the Tmax ([2]; Oral)?
**A.** 49.8 ± 17.4 min

**Q.** And the “Exploration time mean ± S.E.M, Familiar object” value ([3]; 1 mg/kg)?
**A.** 6.26 ± 0.30 s

**Q.** And the “Exploration time mean ± S.E.M, Novel object” value ([3]; 1 mg/kg)?
**A.** 11.46 ± 1.02 s

**Q.** And the Inference ([3]; 1 mg/kg)?
**A.** Active

**Q.** Which Kb [1] does the source give for COc1ccc(S(=O)(=O)c2cc(Br)ccc2OC)cc1NC1CCNCC1 [Example 29, N-[5-(5-Bromo-2-methoxybenzenesulfonyl)-2-methoxyphenyl]-N-(piperidin-4-yl)amine hydrochloride] here?
**A.** 0.1 nM

**Q.** With COc1ccc(S(=O)(=O)c2ccc(OC)c(NC3CCN(C)CC3)c2)cc1Br [Example 30, N-[5-(3-Bromo-4-methoxybenzenesulfonyl)-2-methoxyphenyl]-N-(1-methylpiperidin-4-yl)amine tartarate] as the molecule, how does the Kb [1] read?
**A.** 0.01 nM

**Q.** With COc1ccc(S(=O)(=O)c2cc(F)ccc2OC)cc1NC1CCN(C)CC1 [Example 31, N-[5-(5-Fluoro-2-methoxybenzenesulfonyl)-2-methoxyphenyl]-N-(1-methylpiperidin-4-yl)amine tartarate] as the molecule, how does the Kb [1] read?
**A.** 0.05 nM

**Q.** Which Kb [1] does the source give for COc1ccc(S(=O)(=O)c2ccc(Cl)cc2)cc1NC1CCN(C)CC1 [Example 32, N-[5-(4-Chlorobenzenesulfonyl)-2-methoxyphenyl]-N-(1-methylpiperidin-4-yl)amine tartarate] here?
**A.** 0.06 nM

**Q.** Which Kb [1] does the source give for COc1ccc(S(=O)(=O)c2ccc(OC)c(NC3CCN(C)CC3)c2)cc1Cl [Example 34, N-[5-(3-Chloro-4-methoxybenzenesulfonyl)-2-methoxyphenyl]-N-(1-methylpiperidin-4-yl)amine tartarate] here?
**A.** 0.1 nM

**Q.** For Cc1ccc(S(=O)(=O)c2ccccc2)cc1NC1CCN(C)CC1 [Example 35, N-(5-Benzenesulfonyl-2-methylphenyl)-N-(1-methylpiperidin-4-yl)amine], which “Exploration time mean ± S.E.M, Familiar object” value ([3]; 10 mg/kg) is on record?
**A.** 9.37 ± 1.66 s

**Q.** What about the “Exploration time mean ± S.E.M, Novel object” value ([3]; 10 mg/kg) of the same molecule?
**A.** 15.81 ± 2.89 s

**Q.** What about the Inference ([3]; 10 mg/kg) of the same molecule?
**A.** Active

Reference: US9018231B2, “Sulfone compounds as 5-HT6 receptor ligands” (Suven Life Sciences Limited, priority 2010, dated 2015)
